In patent US20250223268A1, “4-Methylsulfonylbenzamide Compound, Preparation Method, Herbicidal Composition And Use” (Jiangsu Flag Chemical Industry Co., Ltd., priority 2022, published 2025):

How the values were obtained:
Assay in all cases: Greenhouse herbicidal activity assay, post-emergence
Assay type in all cases: in vivo
Cyperus iria = details: Post-emergence test, rate 150 g a.i./hm^2, grade by fresh weight inhibition rate; for pest or weed control at 150 g/ha: Cyperus iria, read-out: Control efficacy grade, Cyperus iria
Outline: (§1)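 Weeds were sown in nutrient soil in 7 cm pots and grown in a growth chamber to the 3-6 leaf stage, then foliar-sprayed, air-dried and returned to the chamber. Fresh weight inhibition was scored 14-21 days later in bands from A (≥80% to 100%) to E (<20%).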

Digitaria sanguinalis = details: Post-emergence test, rate 150 g a.i./hm^2, grade by fresh weight inhibition rate; for pest or weed control at 150 g/ha: Digitaria sanguinalis, read-out: Control efficacy grade, Digitaria sanguinalis
Outline: as §1

Echinochloa crusgalli = details: Post-emergence test, rate 150 g a.i./hm^2, grade by fresh weight inhibition rate; for pest or weed control at 150 g/ha: Echinochloa crus-galli, read-out: Control efficacy grade, Echinochloa crusgalli
Outline: as §1

Eclipta prostrata = details: Post-emergence test, rate 150 g a.i./hm^2, grade by fresh weight inhibition rate; for pest or weed control at 150 g/ha: Eclipta prostrata, read-out: Control efficacy grade, Eclipta prostrata
Outline: as §1

Leptochloa chinensis = details: Post-emergence test, rate 150 g a.i./hm^2, grade by fresh weight inhibition rate; for pest or weed control at 150 g/ha: Dinebra chinensis, read-out: Control efficacy grade, Leptochloa chinensis
Outline: as §1

Compound | Control efficacy grade, Cyperus iria (Cyperus iria) | Control efficacy grade, Digitaria sanguinalis (Digitaria sanguinalis) | Control efficacy grade, Echinochloa crusgalli (Echinochloa crusgalli) | Control efficacy grade, Eclipta prostrata (Eclipta prostrata) | Control efficacy grade, Leptochloa chinensis (Leptochloa chinensis) | pest or weed control at 150 g/ha (Cyperus iria) [%] | pest or weed control at 150 g/ha (Digitaria sanguinalis) [%] | pest or weed control at 150 g/ha (Echinochloa crusgalli) [%] | pest or weed control at 150 g/ha (Eclipta prostrata) [%] | pest or weed control at 150 g/ha (Leptochloa chinensis) [%]
CS(=O)(=O)c1ccc(C(=O)Nc2nnc(C3CC3)o2)c(Cl)c1[S+]([O-])CCCl (racemic) [Compound 3-727] | A (Fresh weight inhibition rate≥80% to 100%) | A (Fresh weight inhibition rate≥80% to 100%) | A (Fresh weight inhibition rate≥80% to 100%) | A (Fresh weight inhibition rate≥80% to 100%) | A (Fresh weight inhibition rate≥80% to 100%) |  |  |  |  | 
Cc1nnc(NC(=O)c2ccc(S(C)(=O)=O)c(SC3CCC3)c2Cl)o1 [Compound 3-82] | A (Fresh weight inhibition rate≥80% to 100%) | A (Fresh weight inhibition rate≥80% to 100%) | A (Fresh weight inhibition rate≥80% to 100%) | A (Fresh weight inhibition rate≥80% to 100%) | A (Fresh weight inhibition rate≥80% to 100%) |  |  |  |  | 
CCC(C)S(=O)(=O)c1c(S(C)(=O)=O)ccc(C(=O)Nc2ncnn2C)c1Cl (racemic) [Compound 2-24] | A (Fresh weight inhibition rate≥80% to 100%) | A (Fresh weight inhibition rate≥80% to 100%) | A (Fresh weight inhibition rate≥80% to 100%) | A (Fresh weight inhibition rate≥80% to 100%) | A (Fresh weight inhibition rate≥80% to 100%) |  |  |  |  | 
CS(=O)(=O)c1ccc(C(=O)Nc2nnco2)c(Cl)c1[S+]([O-])C1CCC1 (racemic) [Compound 3-309] | A (Fresh weight inhibition rate≥80% to 100%) | A (Fresh weight inhibition rate≥80% to 100%) | A (Fresh weight inhibition rate≥80% to 100%) | A (Fresh weight inhibition rate≥80% to 100%) | A (Fresh weight inhibition rate≥80% to 100%) |  |  |  |  | 
CC(C)CSc1c(S(C)(=O)=O)ccc(C(=O)Nc2nnco2)c1Cl [Compound 3-293] | A (Fresh weight inhibition rate≥80% to 100%) | A (Fresh weight inhibition rate≥80% to 100%) | A (Fresh weight inhibition rate≥80% to 100%) | A (Fresh weight inhibition rate≥80% to 100%) | A (Fresh weight inhibition rate≥80% to 100%) |  |  |  |  | 
CC(C)c1nnc(NC(=O)c2ccc(S(C)(=O)=O)c([S+]([O-])C3CCC3)c2Cl)o1 (racemic) [Compound 3-541] | A (Fresh weight inhibition rate≥80% to 100%) | B (Fresh weight inhibition rate≥260% to <80%) | C (Fresh weight inhibition rate≥40% to <60%) | A (Fresh weight inhibition rate≥80% to 100%) | A (Fresh weight inhibition rate≥80% to 100%) |  |  |  |  | 
Cn1nnnc1NC(=O)c1ccc(S(C)(=O)=O)c(S(=O)(=O)CC(F)(F)F)c1Cl [Compound 1-56] | A (Fresh weight inhibition rate≥80% to 100%) | A (Fresh weight inhibition rate≥80% to 100%) | A (Fresh weight inhibition rate≥80% to 100%) | A (Fresh weight inhibition rate≥80% to 100%) | A (Fresh weight inhibition rate≥80% to 100%) |  |  |  |  | 
CCCSc1c(S(C)(=O)=O)ccc(C(=O)Nc2nnnn2C)c1Cl [Compound 1-1, 2-chloro-N-(1-methyl-1H-tetrazol-5-yl)-4-(methylsulfonyl)-3-(propylthio)benzamide] |  |  |  |  |  | 80 to 100 | 80 to 100 | 80 to 100 | 80 to 100 | 80 to 100
CS(=O)(=O)c1ccc(C(=O)Nc2nnco2)c(Cl)c1[S+]([O-])C1CC1 (racemic) [Compound 3-304] | A (Fresh weight inhibition rate≥80% to 100%) | A (Fresh weight inhibition rate≥80% to 100%) | A (Fresh weight inhibition rate≥80% to 100%) | A (Fresh weight inhibition rate≥80% to 100%) | A (Fresh weight inhibition rate≥80% to 100%) |  |  |  |  | 
Cn1ncnc1NC(=O)c1ccc(S(C)(=O)=O)c([S+]([O-])CC2CC2)c1Cl (racemic) [Compound 2-28] | A (Fresh weight inhibition rate≥80% to 100%) | A (Fresh weight inhibition rate≥80% to 100%) | A (Fresh weight inhibition rate≥80% to 100%) | A (Fresh weight inhibition rate≥80% to 100%) | A (Fresh weight inhibition rate≥80% to 100%) |  |  |  |  | 
Cc1nnc(NC(=O)c2ccc(S(C)(=O)=O)c(SC(C)C)c2Cl)o1 [Compound 3-6, 2-chloro-3-(isopropylthio)-N-(5-methyl-1,3,4-oxadiazol-2-yl)-4-(methylsulfonyl)benzamide] |  |  |  |  |  | 80 to 100 | 80 to 100 | 80 to 100 | 80 to 100 | 80 to 100
CC(C)[S+]([O-])c1c(S(C)(=O)=O)ccc(C(=O)Nc2nnnn2C)c1Cl (single isomer, unassigned) [Compound 1-8] | A (Fresh weight inhibition rate≥80% to 100%) | A (Fresh weight inhibition rate≥80% to 100%) | A (Fresh weight inhibition rate≥80% to 100%) | A (Fresh weight inhibition rate≥80% to 100%) | A (Fresh weight inhibition rate≥80% to 100%) |  |  |  |  | 
CCCC[S+]([O-])c1c(S(C)(=O)=O)ccc(C(=O)Nc2nnc(C)o2)c1Cl (racemic) [Compound 3-12] | A (Fresh weight inhibition rate≥80% to 100%) | A (Fresh weight inhibition rate≥80% to 100%) | A (Fresh weight inhibition rate≥80% to 100%) | A (Fresh weight inhibition rate≥80% to 100%) | A (Fresh weight inhibition rate≥80% to 100%) |  |  |  |  | 
CCC(C)Sc1c(S(C)(=O)=O)ccc(C(=O)Nc2nnc(C)o2)c1Cl (racemic) [Compound 3-16] | A (Fresh weight inhibition rate≥80% to 100%) | A (Fresh weight inhibition rate≥80% to 100%) | A (Fresh weight inhibition rate≥80% to 100%) | A (Fresh weight inhibition rate≥80% to 100%) | A (Fresh weight inhibition rate≥80% to 100%) |  |  |  |  | 
CC(C)[S+]([O-])c1c(S(C)(=O)=O)ccc(C(=O)Nc2nnc(C3CC3)o2)c1Cl (racemic) [Compound 3-621, 2-chloro-N-(5-cyclopropyl-1,3,4-oxadiazol-2-yl)-3-(isopropylsulfinyl)-4-(methylsulfonyl)benzamide] |  |  |  |  |  | 80 to 100 | 80 to 100 | 80 to 100 | 80 to 100 | 80 to 100
C=CCS(=O)(=O)c1c(S(C)(=O)=O)ccc(C(=O)Nc2ncnn2C)c1Cl [Compound 2-71] | A (Fresh weight inhibition rate≥80% to 100%) | A (Fresh weight inhibition rate≥80% to 100%) | A (Fresh weight inhibition rate≥80% to 100%) | A (Fresh weight inhibition rate≥80% to 100%) | A (Fresh weight inhibition rate≥80% to 100%) |  |  |  |  | 
Cc1nnc(NC(=O)c2ccc(S(C)(=O)=O)c(SCCC(C)C)c2Cl)o1 [Compound 3-52] | A (Fresh weight inhibition rate≥80% to 100%) | B (Fresh weight inhibition rate≥260% to <80%) | B (Fresh weight inhibition rate≥260% to <80%) | A (Fresh weight inhibition rate≥80% to 100%) | A (Fresh weight inhibition rate≥80% to 100%) |  |  |  |  | 
Cn1nnnc1NC(=O)c1ccc(S(C)(=O)=O)c([S+]([O-])CC2CC2)c1Cl (racemic) [Compound 1-28] | A (Fresh weight inhibition rate≥80% to 100%) | A (Fresh weight inhibition rate≥80% to 100%) | A (Fresh weight inhibition rate≥80% to 100%) | A (Fresh weight inhibition rate≥80% to 100%) | A (Fresh weight inhibition rate≥80% to 100%) |  |  |  |  | 
CS(=O)(=O)c1ccc(C(=O)Nc2nnc(C3CC3)o2)c(Cl)c1[S+]([O-])C1CCC1 (racemic) [Compound 3-657] | A (Fresh weight inhibition rate≥80% to 100%) | A (Fresh weight inhibition rate≥80% to 100%) | B (Fresh weight inhibition rate≥260% to <80%) | A (Fresh weight inhibition rate≥80% to 100%) | A (Fresh weight inhibition rate≥80% to 100%) |  |  |  |  | 
